Measurements: PubChem BioAssay AID1259407 (Chemical Carcinogenesis Research Information System (CCRIS), 2018)
Active and inactive are the calls of the source. How the calls were made is not given here.

Test system: CCRIS mutagenicity, Ames/micronucleus/aberration tests
Experiment: CCRIS mutagenicity studies
[1] = Test System: AMES SALMONELLA TYPHIMURIUM, Strain/Indicator: TA98, Metabolic Activation: NONE, Method: STANDARD PLATE
[2] = Test System: AMES SALMONELLA TYPHIMURIUM, Strain/Indicator: TA100, Metabolic Activation: NONE, Method: STANDARD PLATE
[3] = Test System: AMES SALMONELLA TYPHIMURIUM, Strain/Indicator: TA1535, Metabolic Activation: NONE, Method: STANDARD PLATE

`COc1cc(O)c2c(c1)C1=C[C@H](O)[C@@H](O)C[C@]1(C)OC2=O` was tested, and the mutagenic call (End Point: Ames Salmonella typhimurium, Strain/Indicator: TA97, Metabolic Activation: None, Method: Standard plate) was “inactive; negative. nitrosation did not increase mutagenicity”, the mutagenic call (End Point: Ames Salmonella typhimurium, Strain/Indicator: TA97, Metabolic Activation: Rat, Liver, S-9, Aroclor 1254 (10%), Method: Standard plate) was “inactive; negative. nitrosation did not increase mutagenicity” and the mutagenic call (End Point: Ames Salmonella typhimurium, Strain/Indicator: TA102, Metabolic Activation: None, Method: Standard plate) was “inactive; negative. nitrosation did not increase mutagenicity”. The mutagenic call (End Point: Ames Salmonella typhimurium, Strain/Indicator: TA102, Metabolic Activation: Rat, Liver, S-9, Aroclor 1254 (10%), Method: Standard plate) was “inactive; negative. nitrosation did not increase mutagenicity”, the mutagenic call (End Point: Ames Salmonella typhimurium, Strain/Indicator: TA104, Metabolic Activation: None, Method: Standard plate) was “inactive; negative. nitrosation did not increase mutagenicity” and the mutagenic call (End Point: Ames Salmonella typhimurium, Strain/Indicator: TA104, Metabolic Activation: Rat, Liver, S-9, Aroclor 1254 (10%), Method: Standard plate) was “inactive; negative. nitrosation did not increase mutagenicity”. The mutagenic call [1] was “inactive; negative”, the mutagenic call (Test System: AMES SALMONELLA TYPHIMURIUM, Strain/Indicator: TA98, Metabolic Activation: RAT LIVER S-9, AROCLOR 1254, Method: STANDARD PLATE) was “inactive; negative” and the mutagenic call [2] was “inactive; negative”. For the same compound, the mutagenic call (Test System: AMES SALMONELLA TYPHIMURIUM, Strain/Indicator: TA100, Metabolic Activation: RAT LIVER S-9, AROCLOR 1254, Method: STANDARD PLATE) was “inactive; negative”.
`CCOC(=O)CNC(=O)CCCCSc1ncnc2nc[nH]c12` was tested, and the mutagenic call (Test System: AMES SALMONELLA TYPHIMURIUM, Strain/Indicator: TA97, Metabolic Activation: NONE, Method: STANDARD PLATE) was “inactive; negative”, the mutagenic call (Test System: AMES SALMONELLA TYPHIMURIUM, Strain/Indicator: TA97, Metabolic Activation: RAT, LIVER, S-9, PHENOBARBITAL AND ALPHA-NAPHTHOFLAVONE, Method: STANDARD PLATE) was “inactive; negative” and the mutagenic call [1] was “inactive; negative”. For the same compound, the mutagenic call (Test System: AMES SALMONELLA TYPHIMURIUM, Strain/Indicator: TA98, Metabolic Activation: RAT, LIVER, S-9, PHENOBARBITAL AND ALPHA-NAPHTHOFLAVONE, Method: STANDARD PLATE) was “inactive; negative”, the mutagenic call [2] was “inactive; negative” and the mutagenic call (Test System: AMES SALMONELLA TYPHIMURIUM, Strain/Indicator: TA100, Metabolic Activation: RAT, LIVER, S-9, PHENOBARBITAL AND ALPHA-NAPHTHOFLAVONE, Method: STANDARD PLATE) was “inactive; negative”. For the same compound, the mutagenic call [3] was “inactive; negative” and the mutagenic call (Test System: AMES SALMONELLA TYPHIMURIUM, Strain/Indicator: TA1535, Metabolic Activation: RAT, LIVER, S-9, PHENOBARBITAL AND ALPHA-NAPHTHOFLAVONE, Method: STANDARD PLATE) was “inactive; negative”.
For `Nc1c(O)cccc1[N+](=O)[O-]`, the mutagenic call [1] was “inactive; negative”, the mutagenic call (Test System: AMES SALMONELLA TYPHIMURIUM, Strain/Indicator: TA98, Metabolic Activation: RAT, LIVER, S-9, AROCLOR 1254, Method: STANDARD PLATE) was “inactive; negative” and the mutagenic call [2] was “inactive; negative”. The mutagenic call (Test System: AMES SALMONELLA TYPHIMURIUM, Strain/Indicator: TA100, Metabolic Activation: RAT, LIVER, S-9, AROCLOR 1254, Method: STANDARD PLATE) was “inactive; negative”, the mutagenic call [3] was “inactive; negative” and the mutagenic call (Test System: AMES SALMONELLA TYPHIMURIUM, Strain/Indicator: TA1535, Metabolic Activation: RAT, LIVER, S-9, AROCLOR 1254, Method: STANDARD PLATE) was “inactive; negative”. For the same compound, the mutagenic call (Test System: AMES SALMONELLA TYPHIMURIUM, Strain/Indicator: TA1537, Metabolic Activation: NONE, Method: STANDARD PLATE) was “inactive; negative”, the mutagenic call (Test System: AMES SALMONELLA TYPHIMURIUM, Strain/Indicator: TA1537, Metabolic Activation: RAT, LIVER, S-9, AROCLOR 1254, Method: STANDARD PLATE) was “inactive; negative” and the mutagenic call (Test System: AMES SALMONELLA TYPHIMURIUM, Strain/Indicator: TA1538, Metabolic Activation: NONE, Method: STANDARD PLATE) was “inactive; negative”. For the same compound, the mutagenic call (Test System: AMES SALMONELLA TYPHIMURIUM, Strain/Indicator: TA1538, Metabolic Activation: RAT, LIVER, S-9, AROCLOR 1254, Method: STANDARD PLATE) was “inactive; negative”.
With `Cc1ccc(NC2OC[C@@H](O)[C@@H](O)[C@@H]2O)cc1` (stereo partly specified) the mutagenic call (Test System: AMES SALMONELLA TYPHIMURIUM, Strain/Indicator: TA100, Metabolic Activation: NONE, Method: LIQUID INCUBATION) was “active; positive”.
For `O=C1OC(=C(Cl)Cl)C=C1Cl`, the mutagenic call [2] was “active; positive”.
With `CC1(C)C2CCC3(CO3)C1C2` (stereo unspecified) the mutagenic call [2] was “inactive; negative” and the mutagenic call [3] was “inactive; negative”.
`Cc1ccccc1N=Nc1ccc(N(C)C)cc1` was tested, and the mutagenic call (Test System: AMES SALMONELLA TYPHIMURIUM, Strain/Indicator: TA98, Metabolic Activation: HAMSTER, LIVER, S-9, AROCLOR 1254 (10%), Method: PREINCUBATION) was “inactive; negative”, the mutagenic call (Test System: AMES SALMONELLA TYPHIMURIUM, Strain/Indicator: TA98, Metabolic Activation: NONE, Method: PREINCUBATION) was “inactive; negative” and the mutagenic call (Test System: AMES SALMONELLA TYPHIMURIUM, Strain/Indicator: TA98, Metabolic Activation: RAT, LIVER, S-9, AROCLOR 1254 (10%), Method: PREINCUBATION) was “inactive; negative”. The mutagenic call (Test System: AMES SALMONELLA TYPHIMURIUM, Strain/Indicator: TA100, Metabolic Activation: HAMSTER, LIVER, S-9, AROCLOR 1254 (10%), Method: PREINCUBATION) was “inactive; negative”, the mutagenic call (Test System: AMES SALMONELLA TYPHIMURIUM, Strain/Indicator: TA100, Metabolic Activation: NONE, Method: PREINCUBATION) was “inactive; negative” and the mutagenic call (Test System: AMES SALMONELLA TYPHIMURIUM, Strain/Indicator: TA100, Metabolic Activation: RAT, LIVER, S-9, AROCLOR 1254 (10%), Method: PREINCUBATION) was “inactive; negative”. For the same compound, the mutagenic call (Test System: AMES SALMONELLA TYPHIMURIUM, Strain/Indicator: TA1535, Metabolic Activation: HAMSTER, LIVER, S-9, AROCLOR 1254 (10%), Method: PREINCUBATION) was “inactive; negative”, the mutagenic call (Test System: AMES SALMONELLA TYPHIMURIUM, Strain/Indicator: TA1535, Metabolic Activation: NONE, Method: PREINCUBATION) was “inactive; negative” and the mutagenic call (Test System: AMES SALMONELLA TYPHIMURIUM, Strain/Indicator: TA1535, Metabolic Activation: RAT, LIVER, S-9, AROCLOR 1254 (10%), Method: PREINCUBATION) was “inactive; negative”. The mutagenic call (Test System: AMES SALMONELLA TYPHIMURIUM, Strain/Indicator: TA1537, Metabolic Activation: HAMSTER, LIVER, S-9, AROCLOR 1254 (10%), Method: PREINCUBATION) was “inactive; negative”, the mutagenic call (Test System: AMES SALMONELLA TYPHIMURIUM, Strain/Indicator: TA1537, Metabolic Activation: NONE, Method: PREINCUBATION) was “inactive; negative” and the mutagenic call (Test System: AMES SALMONELLA TYPHIMURIUM, Strain/Indicator: TA1537, Metabolic Activation: RAT, LIVER, S-9, AROCLOR 1254 (10%), Method: PREINCUBATION) was “inactive; negative”. For the same compound, the mutagenic call (Test System: E. COLI, Strain/Indicator: WP2 UVRA, Metabolic Activation: HAMSTER, LIVER, S-9, AROCLOR 1254, Method: STANDARD PLATE) was “inactive; negative”, the mutagenic call (Test System: E. COLI, Strain/Indicator: WP2 UVRA, Metabolic Activation: HAMSTER, LIVER, S-9, Method: STANDARD PLATE) was “inactive; negative” and the mutagenic call (Test System: E. COLI, Strain/Indicator: WP2 UVRA, Metabolic Activation: MOUSE, LIVER, S-9, AROCLOR 1254, Method: STANDARD PLATE) was “inactive; negative”. The mutagenic call (Test System: E. COLI, Strain/Indicator: WP2 UVRA, Metabolic Activation: MOUSE, LIVER, S-9, Method: STANDARD PLATE) was “inactive; negative”, the mutagenic call (Test System: E. COLI, Strain/Indicator: WP2 UVRA, Metabolic Activation: NONE, Method: STANDARD PLATE) was “inactive; negative” and the mutagenic call (Test System: E. COLI, Strain/Indicator: WP2 UVRA, Metabolic Activation: RAT, LIVER, S-9, AROCLOR 1254, Method: STANDARD PLATE) was “inactive; negative”. For the same compound, the mutagenic call (Test System: E. COLI, Strain/Indicator: WP2 UVRA, Metabolic Activation: RAT, LIVER, S-9, Method: STANDARD PLATE) was “inactive; negative”.
